Data on seven molecules can be found in PMC7614683, “A small molecule PI3Kα activator for cardioprotection and neuroregeneration” (Nature, 2023).

In one series the target is T1, human p110α/p85α (PI3Kα) (Homo sapiens, UniProt P42336).
T1 construct: Full-length human p110α was expressed either in a complex with full-length human p85α (for HTS, biochemistry and HDX-MS); 6xHis tag followed by TEV protease site (N); host or cells: Spodoptera frugiperda Sf9, baculovirus
The series is described as follows: ADP-Glo in vitro lipid kinase assay, PI3Kα. Conditions: for Maximum activity relative to 1938 / Maximum activity relative to pY control: SI Table 3; for EC50: SI Table 3, 1938 analogues, read-out: EC50; for reduction in activity: relative to 1938. The series is classed as biochemical. The method, then: Kinase reactions were performed with ADP-Glo kinase assay kit (Promega Corporation). The enzyme, substrate and compounds were diluted in reaction buffer (20 mM HEPES, 50 mM NaCl, 50 mM KCl, 3 mM MgCl2, 1 mM EGTA, 1 mM TCEP, pH 7.4). Final concentrations of PI3Kα and PI3Kδ used were 25 nM and 50 nM for PI3Kβ. Liposomes (5% brain PI(4,5)P2, 20% brain phosphatidylserine, 45% brain phosphatidylethanolamine, 15% brain phosphatidylcholine, 10% cholesterol, 5% sphingomyelin (Avanti Polar Lipids)) were used at a final concentration of 1 mg/ml.
For the HTS, the reaction mixture contained 0.75 μl enzyme, 15 nl compound and/or pY and 0.75 μl of liposome substrate mixed with ATP. […] (GL Biochem, Shanghai Ltd). ATP was used at a final concentration of 500 μM unless otherwise stated. The final DMSO concentration in the assay was 1%. The experiments were performed at room temperature for 3 h using 1536-well white-polystyrene plates (Corning #3729) before addition of 2 μl of ADP-Glo R1 to terminate the reaction. The plate was incubated for 40 min, followed by addition of 4 μl of ADP-Glo R2 and incubated further for 60 min in the dark. Luminescence was read using an EnVision (PerkinElmer) plate reader. All analyses were performed using Genedata Screener.
For re-screening of HTS hits and routine compound profiling, the reaction mixture contained 2 μl PI3K enzyme, 2 μl compound and/or pY and 2 μl of liposome substrate mixed with ATP. ATP was used at a final concentration of 500 μM for PI3Kα and PI3Kβ and at 200 μM for PI3Kδ, unless otherwise stated. The final DMSO concentration in the assay was 1%. The experiments were performed at room temperature for 3 h using 384 white-polystyrene plates (Corning #3824) before addition of 6 μl of ADP-Glo R1 to terminate the reaction. The plate was incubated for 45 min, followed by addition of 12 μl of ADP-Glo R2 and incubated further for 60 min in the dark. Luminescence was read using a Sense (Hidex) plate reader. […] All analyses were performed using GraphPad Prism 7.
For characterisation of the effects of 1938 on in vitro PI3K enzymology, all reactions were performed at room temperature with 384 white-polystyrene plates (Corning #3574). The final DMSO concentration in the assay was between 0.5%-1.8%. The reaction mixture contained 2 μl PI3K enzyme, 2 μl compound and/or pY and 2 μl of liposome substrate mixed with ATP. ATP was used at a final concentration of 200 μM, unless otherwise stated.

In a further series the test system is PI3Kα-KO MEFs. The experiment in a line: pAKT S473 western blot, PI3Kα-KO MEFs. The series is classed as cell-based, mouse. Conditions: TGX-221 0.2 μM. The method, then:
Unless otherwise indicated, western blotting was performed with ECL detection. For time course studies, A549 cells were seeded at 250,000 cells per well in 6-well plates in RPMI (10% FBS + 1 mM Na-Pyruvate + 1% P/S) and allowed to adhere overnight. The next day they were serum-starved for 4 h prior to treatment with 100 nM insulin or 5 μM 1938, for the indicated time (5 min to 48 h) at 37°C, 5% CO2. For 1938 titration assays in MEFs, cells were seeded at 150,000 cells per well in 6-well plates and allowed to adhere overnight. The next day they were serum-starved for 4 h prior to treatment with insulin (1 μM), 1938 (0.2 to 30 μM, final DMSO concentration of 1.5%) or inhibitors (final DMSO concentration of ≤1.5%) for 15 min at 37°C, 5% CO2. Cells were washed twice with cold PBS and lysed using cold RIPA buffer (25 mM Tris.HCl pH 7.6, 150 mM NaCl, 1% NP-40, 1% sodium deoxycholate, 0.1% SDS supplemented with protease/phosphatase inhibitor cocktail from Merck). To remove cell debris, homogenates were spun at 13,000 rpm for 15 min at 4°C and the supernatant fraction recovered. Protein concentration was determined by colorimetric assay (BCA assay, Promega). Protein extracts were resolved by SDS-PAGE, transferred to nitrocellulose membranes, and incubated overnight at 4°C with specific antibodies as follows: anti-vinculin (Sigma #V9131) and the following antibodies from Cell Signaling Technology (CST): pAKT-S473 (CST #9271), pS6-S240/244 (CST #2215), pPRAS40-T246 (CST #2640) and total S6 (CST #2317). Primary ntibodies were used at 1:1000 dilution except anti-vinculin (1:10000). Secondary antibodies are also from Cell Signalling Technology: Anti rabbit IgG, HRP linked Antibody (CST #7074S), Anti mouse IgG, HRP linked Antibody (CST #7076S). Raw and uncropped blots are shown in Supplementary Fig. 1.

The test system of another series is A549 cells. The experiment in a line: Phosphoinositide quantification by mass spectrometry, A549. The series is classed as cell-based, human. To be noted: A549, 2 min. The protocol:
(§1) A549 cells (5.10^5) or wild-type MEFs (3.10^5) were plated in complete media onto 3.5 cm dishes or 60 mm dishes respectively for 24 h, prior to FCS-free starvation media for 16 h. MEFs, in addition, were supplemented with arachidonic acid in the FCS-free starvation media as previously described. […] Reactions were terminated in 600 μl ice-cold 1 M HCl and cells scraped and resuspended, then divided into two equal samples in eppendorfs. […] The data are shown as response ratios, calculated by normalizing the multiple reaction monitoring (MRM)-targeted lipid integrated response area to that of a known amount of relevant internal standard. To account for any cell input variability, PIP3 response ratios were normalized to C38:4-PI response ratios; while PI(3,4)P2 response ratios were normalised to PI(4,5)P2 response ratios. Data shown are mean ±SD for n ≥3, except for non-DMSO control in MEF PIP3 measurements where n=1.

The test system of a further series is MEFs. The experiment in a line: Phosphoinositide quantification by mass spectrometry, MEFs. The series is classed as cell-based, mouse. To be noted: 1938 at 5 μM, PDGF 20 ng/ml 2 min. The protocol:
as §1

T1 sequence (P42336 whole entry): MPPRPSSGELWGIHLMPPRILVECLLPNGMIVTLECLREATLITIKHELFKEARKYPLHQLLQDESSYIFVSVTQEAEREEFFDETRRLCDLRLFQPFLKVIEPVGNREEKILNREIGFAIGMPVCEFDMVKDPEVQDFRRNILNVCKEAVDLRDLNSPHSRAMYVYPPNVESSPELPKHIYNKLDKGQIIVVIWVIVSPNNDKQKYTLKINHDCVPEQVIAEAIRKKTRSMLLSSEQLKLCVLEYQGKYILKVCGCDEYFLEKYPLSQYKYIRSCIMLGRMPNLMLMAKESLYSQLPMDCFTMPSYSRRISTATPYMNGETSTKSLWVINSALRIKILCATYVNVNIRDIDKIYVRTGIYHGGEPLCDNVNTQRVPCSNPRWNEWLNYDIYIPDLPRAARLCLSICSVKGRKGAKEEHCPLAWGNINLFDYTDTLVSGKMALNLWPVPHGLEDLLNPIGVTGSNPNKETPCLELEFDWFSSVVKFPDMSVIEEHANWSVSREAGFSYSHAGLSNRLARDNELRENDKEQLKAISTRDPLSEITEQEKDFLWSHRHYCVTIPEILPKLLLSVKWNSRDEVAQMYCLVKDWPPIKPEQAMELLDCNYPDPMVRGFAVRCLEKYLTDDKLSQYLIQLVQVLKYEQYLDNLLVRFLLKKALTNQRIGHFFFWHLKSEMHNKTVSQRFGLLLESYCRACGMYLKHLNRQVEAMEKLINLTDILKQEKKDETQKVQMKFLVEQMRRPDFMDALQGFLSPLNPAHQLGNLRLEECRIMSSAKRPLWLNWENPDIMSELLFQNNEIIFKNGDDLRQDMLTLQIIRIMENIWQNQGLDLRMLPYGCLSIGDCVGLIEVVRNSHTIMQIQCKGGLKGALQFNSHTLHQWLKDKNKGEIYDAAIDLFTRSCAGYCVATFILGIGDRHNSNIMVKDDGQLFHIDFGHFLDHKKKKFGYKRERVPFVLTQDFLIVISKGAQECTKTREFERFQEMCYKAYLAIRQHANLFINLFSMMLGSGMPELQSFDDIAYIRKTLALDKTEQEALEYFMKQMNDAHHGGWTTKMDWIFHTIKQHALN
T1 sequence (P27986 whole entry partner): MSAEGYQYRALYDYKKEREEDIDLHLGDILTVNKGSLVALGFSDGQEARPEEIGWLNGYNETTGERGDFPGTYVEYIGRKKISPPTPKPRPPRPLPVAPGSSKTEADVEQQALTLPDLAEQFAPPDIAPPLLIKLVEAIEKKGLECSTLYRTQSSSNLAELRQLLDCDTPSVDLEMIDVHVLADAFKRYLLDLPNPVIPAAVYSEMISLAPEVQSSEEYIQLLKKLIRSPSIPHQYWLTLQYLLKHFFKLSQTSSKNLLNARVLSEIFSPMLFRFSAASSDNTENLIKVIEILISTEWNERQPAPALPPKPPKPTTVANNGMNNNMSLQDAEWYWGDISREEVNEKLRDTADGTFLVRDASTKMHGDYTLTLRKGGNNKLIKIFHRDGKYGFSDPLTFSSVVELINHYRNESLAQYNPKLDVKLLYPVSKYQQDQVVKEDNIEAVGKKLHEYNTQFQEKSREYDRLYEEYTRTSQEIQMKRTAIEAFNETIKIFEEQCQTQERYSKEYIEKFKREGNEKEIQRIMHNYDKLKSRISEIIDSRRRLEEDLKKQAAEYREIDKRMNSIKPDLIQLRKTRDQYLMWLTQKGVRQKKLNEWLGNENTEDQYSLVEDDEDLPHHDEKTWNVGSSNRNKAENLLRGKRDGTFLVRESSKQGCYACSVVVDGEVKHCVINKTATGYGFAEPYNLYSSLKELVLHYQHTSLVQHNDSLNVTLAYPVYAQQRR

In the case of `COc1cc(Nc2cc(Nc3cccc4c3N(C(C)=O)CC4)ccn2)cc(OC)c1OC` [Compound 1887], on human p110α/p85α (PI3Kα), the “Maximum activity relative to 1938” value is reported as 80% and the half-maximal effective concentration (EC50) was determined as 36 ± 5 µM.

With `COc1cc(N2CCN(C)CC2)ccc1Nc1cc(Nc2cccc3c2N(C(C)=O)CC3)ccn1` [Compound 1889], on human p110α/p85α (PI3Kα), the “Maximum activity relative to 1938” value was determined as 102% and the concentration for a half-maximal effect (EC50) came out at 56 ± 24 µM.

Consider `CC(=O)N1CCc2cccc(Nc3ccnc(Nc4ccccc4)c3)c21` [Compound 2016], for which, at human p110α/p85α (PI3Kα), the “Maximum activity relative to 1938” value is given as 9% and the “Maximum activity relative to pY control” value amounted to 36 ± 8%.

On to `CCN1CCN(c2ccc(Nc3cc(Nc4ccncn4)ccn3)cc2)CC1` [Compound 2106], for which, at human p110α/p85α (PI3Kα), the “Maximum activity relative to 1938” value worked out at 4%, the “Maximum activity relative to pY control” value is listed as 14 ± 13% and the reduction in activity was over 95%.

For `CCN1CCN(c2ccc(Nc3nccc(Nc4cccc5c4N(C(C)=O)CC5)n3)cc2)CC1` [Compound 2152], on human p110α/p85α (PI3Kα), the “Maximum activity relative to 1938” value was found to be 4%, the “Maximum activity relative to pY control” value stood at 16 ± 8% and the reduction in activity was over 95%.

Take `Cc1cc(C(C)Nc2ccccc2)c2nc(N3CCOCC3)cc(=O)n2c1` (stereo not drawn) [TGX-221, reference compound]: the “effect on insulin-stimulated pAKT^S473” value with PI3Kα-KO MEFs is “sensitivity of insulin-stimulated pAKT^S473”.

With PDGF, in the series with A549 cells, the PIP3 response entry is listed as “no PIP3 induced”. The “PI(3,4)P2 signal by mass spectrometry” value in the series on MEFs is “detected”.
